Assay results from ChEMBL document CHEMBL1201862, “PubChem BioAssay data set” (2004).
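Dose response: 5 concentrations. Exposure: 48 h. Format: 96-well plates. Endpoint: linear interpolation; highest concentration if not reached. GI50: concentration for 50% inhibition of growth.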 The source made the active and inactive calls. Rule as the data show it: active = GI50 up to about 1.1 µM and inactive = higher.

Key:
Experiment in all cases: NCI anticancer screen, dose series, 48 h
ACHN = tested on: ACHN
EKVX = tested on: EKVX
HL-60 = tested on: HL-60
Hs-578T = tested on: Hs-578T
KM12 = tested on: KM12
M14 = tested on: M14
MDA-N = tested on: MDA-N
NCI-H23 = tested on: NCI-H23
NCI-H522 = tested on: NCI-H522
OVCAR-3 = tested on: OVCAR-3
RPMI-8226 = tested on: RPMI-8226
SF-268 = tested on: SF-268
SK-OV-3 = tested on: SK-OV-3
SR = tested on: SR
SW-620 = tested on: SW-620
T47D = tested on: T47D
UACC-62 = tested on: UACC-62
UO-31 = tested on: UO-31
A498 = tested on: A498
Malme-3M = tested on: Malme-3M

Measured: GI50

C(=C\Nc1ccc(-c2ccccc2)cc1)/C=N/c1ccc(-c2ccccc2)cc1
inactive: ACHN > 100 µM | EKVX > 100 µM | HL-60 > 100 µM | Hs-578T > 100 µM | KM12 > 100 µM | M14 > 100 µM | MDA-N > 100 µM | NCI-H23 > 100 µM | NCI-H522 > 100 µM | OVCAR-3 > 100 µM | RPMI-8226 > 100 µM | SF-268 > 100 µM | SK-OV-3 > 100 µM | SR > 100 µM | SW-620 > 100 µM | T47D > 100 µM | UACC-62 > 100 µM | UO-31 > 100 µM

CCOC(=O)c1c(NC(=O)c2ccc(OC)cc2)sc2c1CCCC2
inactive: A498 > 100 µM | ACHN > 100 µM | EKVX > 100 µM | HL-60 2.25 µM | Hs-578T > 100 µM | KM12 > 100 µM | M14 > 100 µM | MDA-N > 100 µM | NCI-H23 > 100 µM | OVCAR-3 > 100 µM | RPMI-8226 > 100 µM | SF-268 > 100 µM | SR > 100 µM | SW-620 > 100 µM | T47D > 100 µM | UACC-62 > 100 µM | UO-31 > 100 µM

NNC(=O)Cc1cccnc1
inactive: A498 > 100 µM | ACHN > 100 µM | EKVX > 100 µM | HL-60 > 100 µM | Hs-578T > 100 µM | KM12 > 100 µM | M14 > 100 µM | MDA-N > 100 µM | Malme-3M > 100 µM | NCI-H23 > 100 µM | NCI-H522 > 100 µM | OVCAR-3 > 100 µM | RPMI-8226 > 100 µM | SF-268 > 100 µM | SK-OV-3 > 100 µM | SW-620 > 100 µM | T47D > 100 µM | UACC-62 > 100 µM | UO-31 > 100 µM

S=C1CSc2c(ccc3ccccc23)N1
inactive: ACHN > 100 µM | EKVX 21.7 µM | HL-60 > 100 µM | Hs-578T 51.4 µM | KM12 > 100 µM | M14 > 100 µM | MDA-N > 100 µM | Malme-3M > 100 µM | NCI-H23 > 100 µM | NCI-H522 > 100 µM | OVCAR-3 > 100 µM | RPMI-8226 > 100 µM | SF-268 > 100 µM | SK-OV-3 > 100 µM | SR > 100 µM | T47D > 100 µM | UACC-62 > 100 µM | UO-31 > 100 µM

Cc1ccc2nc(Cl)c(/C=N/N3C(=O)/C(=C/c4ccccc4S)N=C3c3ccccc3)cc2c1
inactive: A498 29.5 µM | ACHN 46.6 µM | EKVX 59.7 µM | HL-60 15.5 µM | Hs-578T 22.3 µM | KM12 25.5 µM | M14 23.3 µM | MDA-N 17 µM | OVCAR-3 4.8 µM | RPMI-8226 21.4 µM | SF-268 36.6 µM | SK-OV-3 22.2 µM | SR 7.96 µM | SW-620 39.2 µM | T47D 48.5 µM | UACC-62 38.7 µM | UO-31 21.9 µM

OC(c1cccs1)c1cc2ccccc2s1 (configuration not stated)
inactive: ACHN > 10 µM | EKVX > 10 µM | HL-60 > 10 µM | Hs-578T > 10 µM | KM12 > 10 µM | M14 > 10 µM | MDA-N > 10 µM | NCI-H23 > 10 µM | NCI-H522 > 10 µM | OVCAR-3 > 10 µM | RPMI-8226 > 10 µM | SF-268 > 10 µM | SK-OV-3 > 10 µM | SR > 10 µM | SW-620 > 10 µM | T47D > 10 µM | UACC-62 > 10 µM | UO-31 > 10 µM
